Test results as given in patent US20090297618A1, “COMPOSITION BENEFICIAL FOR VISUOGNOSIS PERSISTENCE AND USE THEREOF” (Zhejiang Medicine Co., Ltd. Xinchang Pharmaceutical Factory, priority 2008, published 2009).

Tested on: subjects who use video display terminals (VDT) for long time and tend to have asthenopia
Experiment: Human feeding test: detection of visuognosis persistence (asthenopia remission test)
Assay type: in vivo
Conditions: after feeding tablets 35 days, once per day, two tablets, compared with before feeding; FIG. 1
Excerpt: As used herein, the term “visuognosis persistence” is an index for evaluating asthenopia. When the cortical excitability in the human brain reduces, the visual analysis function decreases, in the process of eyes fixating at object, invisible duration will increase and visuognosis duration will decrease. […] X^2 test was used for performance indexes.

For `CC1=C[C@H](O)CC(C)(C)[C@H]1/C=C/C(C)=C/C=C/C(C)=C/C=C/C=C(C)/C=C/C=C(C)/C=C/C1=C(C)C[C@@H](O)CC1(C)C` [lutein], the visuognosis persistence increased was 10.27±8.56%.
